# Experimental data taken from ChEMBL document CHEMBL1131492 (J Med Chem, 1998).
# Key:
# [1] = molecular target: Sodium-dependent dopamine transporter (Rattus norvegicus) (UniProt P23977); assay: Dopamine (DA) uptake; type: functional
# [2] = molecular target: Sodium-dependent dopamine transporter (Rattus norvegicus) (UniProt P23977); assay: Potency ratio for Cocaine receptor (IC50 cocaine /IC50 compound)
# [3] = molecular target: Sodium-dependent dopamine transporter (Rattus norvegicus) (UniProt P23977); assay: Ability to inhibit binding of [3H]cocaine to Cocaine receptor in rat brain; type: tissue-based
# [4] = molecular target: T1, Sodium-dependent dopamine transporter (Rattus norvegicus, UniProt P23977); assay: Inhibition [3H]-cocaine binding to Cocaine receptor in rat striatal membranes.; type: cell membranes
# T1 sequence (P23977 whole entry): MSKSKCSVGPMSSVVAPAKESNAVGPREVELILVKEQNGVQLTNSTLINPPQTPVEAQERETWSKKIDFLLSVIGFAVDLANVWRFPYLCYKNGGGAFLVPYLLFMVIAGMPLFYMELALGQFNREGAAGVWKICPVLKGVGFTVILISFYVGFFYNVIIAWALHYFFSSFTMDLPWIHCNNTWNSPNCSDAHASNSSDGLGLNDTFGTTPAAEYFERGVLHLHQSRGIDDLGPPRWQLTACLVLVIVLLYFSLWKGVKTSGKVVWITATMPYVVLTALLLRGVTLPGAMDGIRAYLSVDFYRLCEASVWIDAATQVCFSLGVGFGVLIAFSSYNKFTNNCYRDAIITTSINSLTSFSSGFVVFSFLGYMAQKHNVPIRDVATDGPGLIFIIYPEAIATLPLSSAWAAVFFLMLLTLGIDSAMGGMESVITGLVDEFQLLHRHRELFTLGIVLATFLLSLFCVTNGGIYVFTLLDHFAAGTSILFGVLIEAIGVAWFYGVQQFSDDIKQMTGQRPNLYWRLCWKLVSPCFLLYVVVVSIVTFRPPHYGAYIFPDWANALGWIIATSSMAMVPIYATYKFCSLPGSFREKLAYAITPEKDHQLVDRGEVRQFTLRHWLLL
# [5] = molecular target: T1, Sodium-dependent dopamine transporter; assay: Inhibition [3H]DA uptake in rat striatal synaptosomes.; type: functional, subcellular, Brain
# [6] = molecular target: Sodium-dependent dopamine transporter (Rattus norvegicus) (UniProt P23977); assay: Value is difference between the cocaine binding and DA uptake
# Chain of Sodium-dependent dopamine transporter (Rattus norvegicus) (P23977 whole entry): as above
smiles,measurement,setting,value
C=C(c1ccccc1)C1CC2CCC(C1C(=O)OC)N2C (centres undefined),Log potency ratio,[1],0.18
same,Log potency ratio,[2],0.15
same,Log potency ratio,[3],-0.83
same,IC50,[4],71.6 nM
same,IC50,[5],138 nM
same,Log potency ratio,[6],-0.03
COC(=O)C1C(CCCc2ccccc2)CC2CCC1N2C (centres undefined),Log potency ratio,[1],-1.11
same,Log potency ratio,[2],-0.53
same,Log potency ratio,[3],-1.84
same,IC50,[4],344 nM
same,IC50,[5],2680 nM
same,Log potency ratio,[6],0.58
COC(=O)C1C(Cc2ccccc2)CC2CCC1N2C (centres undefined),IC50,[5],1020 nM
COC(=O)[C@@H]1C2CC[C@H](C[C@H]1OC(=O)c1ccc3ccccc3c1)N2C,Log potency ratio,[1],-0.59
same,Log potency ratio,[2],-0.51
same,Log potency ratio,[3],0.07
same,IC50,[4],327 nM
same,IC50,[5],813 nM
same,Log potency ratio,[6],0.08
COC(=O)[C@@H]1C2CC[C@H](C[C@H]1CCc1ccccc1)N2C,Log potency ratio,[1],0.47
same,Log potency ratio,[2],1.01
same,Log potency ratio,[3],-0.77
same,IC50,[4],9.94 nM
same,IC50,[5],70.5 nM
same,Log potency ratio,[6],0.54
COC(=O)C1C(Cc2ccc3ccccc3c2)CC2CCC1N2C (centres undefined),IC50,[5],1350 nM
COC(=O)[C@H]1C2CC[C@H](C[C@H]1c1ccc3ccccc3c1)N2C,Log potency ratio,[1],1.77
same,Log potency ratio,[2],1.48
same,Log potency ratio,[3],1.66
same,IC50,[4],3.32 nM
same,IC50,[5],3.53 nM
same,Log potency ratio,[6],-0.29
COC(=O)[C@@H]1C2CC[C@H](C[C@H]1c1ccc(-c3ccccc3)cc1)N2C,Log potency ratio,[1],0.85
same,Log potency ratio,[2],0.99
same,Log potency ratio,[3],0.9
same,IC50,[4],10.3 nM
same,IC50,[5],29.4 nM
same,Log potency ratio,[6],0.14
COC(=O)C1C(c2ccc([N+](=O)[O-])cc2)CC2CCC1N2C (centres undefined),Log potency ratio,[2],0.006
same,Log potency ratio,[3],1.48
same,Log potency ratio,[6],-0.134
COC(=O)[C@H]1[C@@H](c2ccc(F)cc2)C[C@H]2CC[C@H]1N2C,Log potency ratio,[1],0.94
same,Log potency ratio,[2],0.59
same,Log potency ratio,[3],-0.49
same,Log potency ratio,[6],-0.35
COC(=O)C1C(OC(=O)c2cccc3ccccc23)CC2CCC1N2C (centres undefined),Log potency ratio,[1],-0.76
same,Log potency ratio,[2],-0.87
same,Log potency ratio,[3],0.01
same,IC50,[4],742 nM
same,IC50,[5],1190 nM
same,Log potency ratio,[6],-0.11
COC(=O)C1C(c2ccc(N)cc2)CC2CCC1N2C (centres undefined),Log potency ratio,[1],0.18
same,Log potency ratio,[2],-0.14
same,Log potency ratio,[3],2.58
same,Log potency ratio,[6],-0.32
COC(=O)[C@@H]1C2CC[C@H](C[C@@H]1c1ccccc1)N2C,Log potency ratio,[1],0.66
same,Log potency ratio,[2],0.53
same,Log potency ratio,[6],-0.13
COC(=O)[C@@H]1C2CC[C@H](C[C@H]1/C=C/c1ccccc1)N2C,Log potency ratio,[1],1.55
same,Log potency ratio,[2],1.68
same,Log potency ratio,[3],0.48
same,IC50,[4],2.1 nM
same,IC50,[5],5.88 nM
same,Log potency ratio,[6],0.13
